Assay results from ChEMBL document CHEMBL3882732, “4,5-diaryl-3(2H)-furanone derivatives as cyclooxygenase-2 inhibitors” (2002).
Values belong to the compound of their own block, whether it stands above or below them.

How the values were obtained:
[1] = biological target: T1, Prostaglandin G/H synthase 1 (Mus musculus, UniProt P22437); experiment: Inhibition of COX1 in C57BL/6 mouse peritoneal macrophages assessed as reduction in PGE2 formation pre-incubated for 2 hrs followed by arachidonic acid addition and measured after 10 mins by radio-immuno assay or enzyme-immunoassay
T1 sequence (P22437 whole entry): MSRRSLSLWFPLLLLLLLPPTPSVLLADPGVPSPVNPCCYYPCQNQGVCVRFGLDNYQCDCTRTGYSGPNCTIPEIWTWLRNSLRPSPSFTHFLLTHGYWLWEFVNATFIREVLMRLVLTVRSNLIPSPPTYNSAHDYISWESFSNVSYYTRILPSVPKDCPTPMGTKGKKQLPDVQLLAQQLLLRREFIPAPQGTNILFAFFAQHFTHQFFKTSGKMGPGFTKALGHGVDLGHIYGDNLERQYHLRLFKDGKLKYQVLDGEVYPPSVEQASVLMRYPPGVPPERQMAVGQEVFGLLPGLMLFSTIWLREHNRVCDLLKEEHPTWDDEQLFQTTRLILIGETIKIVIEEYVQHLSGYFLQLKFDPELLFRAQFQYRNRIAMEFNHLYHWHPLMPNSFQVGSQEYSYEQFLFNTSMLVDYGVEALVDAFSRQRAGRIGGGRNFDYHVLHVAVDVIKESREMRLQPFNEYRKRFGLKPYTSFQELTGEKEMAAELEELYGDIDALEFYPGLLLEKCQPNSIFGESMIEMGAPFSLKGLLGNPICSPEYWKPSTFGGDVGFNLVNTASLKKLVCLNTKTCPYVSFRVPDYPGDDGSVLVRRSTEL

[2] = Drug level in Sprague-Dawley rat blood treated with 4-(3-Chlorophenyl)-2,2-dimethyl-5-{4-(methylsulfinyl)phenyl}-3(2H)-furanone at 10 mg/kg dosed through oral gavage assessed as sulfoxide to sulfonyl bio-transformation by measuring compound level measured after 24 to 48 hrs by HPLC method; type: ADME, organism-based; conditions: in vivo
[3] = Drug metabolism in Sprague-Dawley rat blood assessed as sulfoxide to sulfonyl bio-transformation by measuring compound-62 level at 10 mg/kg dosed through oral gavage measured after 24 to 48 hrs by HPLC method; type: ADME, organism-based; conditions: in vivo
Rattus norvegicus [4] = experiment: Anti-inflammatory activity in Sprague-Dawley rat assessed as inhibition of carrageenan-induced foot edema at 3 mg/kg dosed through oral gavage 1 hr before carrageenan challenge and measured 3 hrs after carrageenan challenge; type: functional
[5] = biological target: T2, Prostaglandin G/H synthase 2 (Mus musculus, UniProt Q05769); experiment: Inhibition of COX2 in C57BL/6 mouse peritoneal macrophages assessed as reduction in PGE2 formation pre-incubated for 2 hrs before LPS stimulation for 16 hrs followed by arachidonic acid addition and measured after 10 mins in presence of 500 uM aspirin by radio-immuno assay or enzyme-immunoassay
T2 sequence (Q05769 whole entry): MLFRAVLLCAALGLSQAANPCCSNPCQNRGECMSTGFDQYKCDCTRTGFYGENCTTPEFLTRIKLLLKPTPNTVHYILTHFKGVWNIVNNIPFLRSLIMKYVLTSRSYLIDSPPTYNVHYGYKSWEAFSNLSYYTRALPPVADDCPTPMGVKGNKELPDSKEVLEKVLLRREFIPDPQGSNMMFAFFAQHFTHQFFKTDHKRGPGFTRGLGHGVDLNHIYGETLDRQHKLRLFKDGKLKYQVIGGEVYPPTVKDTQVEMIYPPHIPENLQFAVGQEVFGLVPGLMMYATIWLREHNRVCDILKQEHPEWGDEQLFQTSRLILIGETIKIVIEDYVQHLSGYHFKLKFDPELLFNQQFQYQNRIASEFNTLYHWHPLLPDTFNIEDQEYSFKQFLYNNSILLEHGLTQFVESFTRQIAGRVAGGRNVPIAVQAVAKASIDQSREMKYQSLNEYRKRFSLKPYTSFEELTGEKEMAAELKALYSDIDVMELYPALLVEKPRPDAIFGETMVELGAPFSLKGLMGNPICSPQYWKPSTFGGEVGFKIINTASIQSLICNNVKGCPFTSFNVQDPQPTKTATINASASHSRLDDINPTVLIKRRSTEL

Rattus norvegicus [6] = experiment: Anti-inflammatory activity in Sprague-Dawley rat model of […] Freund's adjuvant-induced arthritis assessed as inhibition of adjuvant-induced arthritis dosed through oral gavage daily once beginning on day 14 after adjuvant injection and continued till day 22 after adjuvant injection by displacement plethysmometry; type: functional
Mus musculus = experiment: Analgesic activity in ICR mouse assessed as reduction in number of abdominal constrictions dosed through oral gavage one hr before acetic acid challenge measured after 6 mins post acetic acid challenge by acetic acid-induced writhing test; type: functional; conditions: Abdomen, 0.1 h

- IC50 [1]: 24.4 µM
Compound: CC(C)c1ccc(C2=C(c3ccc(S(C)(=O)=O)cc3)OC3(CCCC3)C2=O)cc1

- Drug metabolism [2]: Metabolite_Detected
Compound: CC1(C)OC(c2ccc(S(C)(=O)=O)cc2)=C(c2cccc(Cl)c2)C1=O

- Drug metabolism [3]: Metabolite_Detected
Compound: C[S+]([O-])c1ccc(C2=C(c3cccc(Cl)c3)C(=O)C(C)(C)O2)cc1 (stereo not drawn)

Compound: CC1(C)OC(c2ccc(S(N)(=O)=O)c(F)c2)=C(c2ccc(F)cc2F)C1=O
- inhibition in vivo at 3 mg/kg (Rattus norvegicus [4]): 32%

- IC50 [5]: 0.0337 µM
- IC50 [1]: 8.98 µM
Compound: CC(=O)c1cccc(C2=C(c3ccc(S(N)(=O)=O)cc3)OC(C)(C)C2=O)c1

- IC50 [1]: 29 µM
Compound: C[S+]([O-])c1ccc(C2=C(c3cccc(F)c3)C(=O)C(C)(C)O2)cc1 (stereo not drawn)

Compound: CC1(C)OC(c2ccc(S(N)(=O)=O)cc2F)=C(c2ccc(F)cc2)C1=O
- ED50 (Rattus norvegicus [6]): 0.09 mg/kg

- IC50 [5]: 8.71 µM
- IC50 [1]: 87.1 µM
Compound: C[S+]([O-])c1ccc(C2=C(c3ccc(F)cc3)C(=O)C(C)(C)O2)cc1 (stereo not drawn)

Compound: CC1(C)OC(c2ccc(S(N)(=O)=O)cc2)=C(c2cccc(Cl)c2)C1=O
- ED50 (Rattus norvegicus [6]): 0.03 mg/kg

Compound: CC1(C)OC(c2ccc(S(C)(=O)=O)cc2)=C(c2cccc(F)c2)C1=O
- ED50 (Mus musculus): 8.3 mg/kg
- ED50 (Rattus norvegicus [6]): 0.07 mg/kg

Compound: CC1(C)OC(c2ccc(S(C)(=O)=O)cc2)=C(c2cc(F)cc(F)c2)C1=O
- ED50 (Rattus norvegicus [6]): 0.03 mg/kg

Compound: CC1(C)OC(c2ccc(S(C)(=O)=O)cc2)=C(c2cccc(C(F)(F)F)c2)C1=O
- ED50 (Rattus norvegicus [6]): 0.06 mg/kg

Compound: COc1ccc2c(c1)c(CC(=O)O)c(C)n2C(=O)c1ccc(Cl)cc1 [INDOMETHACIN]
- ED50 (Mus musculus): 7.4 mg/kg

Compound: CC1(C)OC(c2ccc(S(N)(=O)=O)cc2)=C(c2cccc(F)c2)C1=O [POLMACOXIB]
- ED50 (Mus musculus): 12.3 mg/kg
- ED50 (Rattus norvegicus [6]): 0.02 mg/kg
